According to patent publication US8975400B2, “2,3-dihydroimidazo[1, 2-c] pyrimidin-5(1 H)-one compounds use as LP-PLA2 inhibitors” (Glaxo Group Limited, priority 2011, dated 2015):
Counter-ions that a name gives are not always drawn.

Legend:
[1] = molecular target: T1, recombinant human Lp-PLA2 (Homo sapiens, UniProt Q13093); assay: Recombinant human Lp-PLA2 assay (rhLp-PLA2, PED6 assay); format: biochemical; settings: recombinant human Lp-PLA2, PED6 substrate; upper limit for pIC50 in this assay is 9.3
T1 sequence (Q13093 22-441): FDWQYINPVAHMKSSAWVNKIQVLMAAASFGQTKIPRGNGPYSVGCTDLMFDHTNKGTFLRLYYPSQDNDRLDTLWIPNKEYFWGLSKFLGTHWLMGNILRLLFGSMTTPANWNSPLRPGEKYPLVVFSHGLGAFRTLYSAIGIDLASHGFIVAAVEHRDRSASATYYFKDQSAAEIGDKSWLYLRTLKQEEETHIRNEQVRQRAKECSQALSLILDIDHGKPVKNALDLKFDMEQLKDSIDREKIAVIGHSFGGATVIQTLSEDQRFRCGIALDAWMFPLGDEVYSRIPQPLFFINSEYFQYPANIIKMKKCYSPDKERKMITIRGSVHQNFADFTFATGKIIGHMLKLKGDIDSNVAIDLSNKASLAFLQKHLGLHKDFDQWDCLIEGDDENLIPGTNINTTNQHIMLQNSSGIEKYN
Excerpt: (1) Recombinant Human Lp-PLA2 Assay (rhLp-PLA2) (Also Referred to as “PED6” Assay)
N-((6-(2,4-dinitrophenyl)amino)-hexanoyl)-2-(4,4-difluoro-5,7-dimethyl-4-bora-3a,4a-diaza-s-indacene-3-pentanoyl)-1-hexadecanoyl-sn-glycero-3-phosphoethanolamine, triethylammonium salt (PED6) is a commercially available fluorescently-labeled phospholipid, which is commercially available from Invitrogene and Molecular Probes. There is a quenching […] and a Bodipy fluorescein (FL) group in the sn2 position. Upon cleavage with Lp-PLA2, the Bodipy FL group is liberated and then may result in an increase in fluorescence. Inhibitors of Lp-PLA2 therefore prevent this cleavage and no fluorescent increase is observed.
The PED6 assay was run as an unquenched 10 μL assay. The source plate containing the compounds to be tested was prepared by making 1:3 (by volume) serial dilution of the compounds within DMSO on 384-well microplate. Then, 0.01 μL of the compounds on compound source plate were transferred into 384 well Greiner 784076 (black) plates using ECHO liquid dispenser. 5 µL of recombinant human Lp-PLA2 enzyme (4 nM (or 110 pM) rhLp-PLA2 in assay buffer of 50 mM HEPES, pH 7.4, 150 mM NaCl, 1 mM CHAPS) was added to each well of the plate. Plates were centrifuged for 10 sec at 500 rpm. After 30 minutes preincubation, 5 µL of substrate (4 μM (or 5 μM) PED6 [from 5 mM DMSO stock] in assay buffer of 50 mM HEPES, pH 7.4, 150 mM NaCl, 1 mM CHAPS) was added to 384 well Greiner 784076 (black) plates. Plates were centrifuged for 10 sec at 500 rpm. The plate was covered to protect it from light and incubated for 20 min at room temperature. The plates were read for fluorescence intensity at ex: 480/em: 540 using ViewLux microplate imager for Envision spectrofluroimeters pIC50 data, curve and QC analysis was conducted by using XL fit module in Excel.
The compounds described below were tested generally according to the PED6 assay described above.

Lp-PLA2 in human plasma = molecular target: T2, Lp-PLA2 in human plasma (Homo sapiens, UniProt Q13093); assay: Lp-PLA2 human plasma assay (Thio-PAF assay); format: biochemical; settings: pooled human plasma, 2-thio-PAF substrate; read-out: pIC50 in the thio-PAF assay (converted)
T2 construct: This assay may detect the activity of Lp-PLA2 in human plasma; from tissue; host or cells: pooled human plasma
T2 sequence (Q13093 22-441): T1 sequence (Q13093 22-441)
Excerpt: (3) Lipoprotein-Associated Phospholipase A2 (Lp-PLA2) Human Plasma Assay (Also Referred to as “Thio-PAF Assay”)
The human plasma assay utilizes a thioester analog of PAF (phosphatidylcholine), where hydrolysis yields to the formation of a phospholipid containing a free thiol group. The amount of thiol is quantitated continuously by reacting with CPM (7-diethylamino-3-(4′-maleimidylphenyl)-4-methylcoumarin), a maleimide which increases in fluoresence after Michael addition of thiols. This assay may detect the activity of Lp-PLA2 in human plasma, as determined by specific inhibition by Lp-PLA2 inhibitors.
The thio-PAF assay was run as a quenched 15 μL assay. Compounds source plate was prepared by making 1:3 (by volume) serial dilution of the compounds into pure DMSO on 384-well microplate. 0.01 μL of compounds on compound source plate were transferred to 384 well Greiner 784076 (black) low-volume plates by ECHO liquid dispenser. 8 μL pooled human plasma, which was previously aliquoted and frozen, was added. Plates were centrifuged for 10 sec at 500 rpm. After 30 minutes preincubation, 2 μL of substrate solution comprising 2.5 mM 2-thio-PAF [from ethanol stock], 32 μM CPM [from a DMSO stock] and 3.2 mM NEM (N-ethylmaleimide) [made fresh daily in DMSO] in assay buffer of 50 mM HEPES, pH 7.4, 150 mM NaCl, 1 mM CHAPS was added to 384 well Greiner 784076 (black) low-volume plates by BRAVO liquid handling station. After 2 mins, reaction was quenched with 5 μL of 5% aqueous trifluoroacetic acid (TFA). Plates were covered to protect from light and incubated for 40 min at room temperature. Plates were read at ex: 380/em: 485 using-Envision microplate reader. pIC50 data, curve and QC analysis was conducted by using XLFit module in Excel.

| IC50 [1] [nM] | IC50 (Lp-PLA2 in human plasma) [nM] | Compound |
| --- | --- | --- |
| ≤ 10 | ≤ 1000 | CN1CCn2c1cc(OCc1cc(F)c(Oc3ccc(C(F)(F)F)cc3)c(F)c1)nc2=O [Example E84, 7-((3,5-difluoro-4-(4-(trifluoromethyl)phenoxy)benzyl)oxy)-1-methyl-2,3-dihydroimidazo[1,2-c]pyrimidin-5(1H)-one] |
| ≤ 1 | ≤ 100 | CN1CCn2c1cc(OCc1ccc(Oc3ccc(F)c(F)c3)c(F)c1)nc2=O [Example E4, 7-((4-(3,4-difluorophenoxy)-3-fluorobenzyl)oxy)-1-methyl-2,3-dihydroimidazo[1,2-c]pyrimidin-5(1H)-one] |
| ≤ 10 | ≤ 1000 | CN1CCn2c1cc(OCc1ccc(Oc3cccc(C(F)(F)F)c3)c(F)c1)nc2=O [Example E20, 7-((3-fluoro-4-(3-(trifluoromethyl)phenoxy)benzyl)oxy)-1-methy-2,3-dihydroimid-azo[1,2-c]pyrimidin-5(1H)-one] |
| ≤ 10 | ≤ 1000 | CN1CCn2c1cc(OCc1cc(F)c(Oc3ccc(F)c(F)c3)c(F)c1)nc2=O [Example E75, 7-((4-(3,4-difluorophenoxy)-3,5-difluorobenzyl)oxy)-1-methyl-2,3-dihydroimida-zo[1,2-c]pyrimidin-5(1H)-one] |
| ≤ 10 | ≤ 1000 | CC(C)N1CCn2c1cc(OCc1ccc(Oc3ccc(F)c(F)c3)c(C#N)c1)nc2=O [Example E53, 2-(3,4-difluorophenoxy)-5-(((1-isopropyl-5-oxo-1,2,3,5-tetrahydroimidazo[1,2-c]pyrimidin-7-yl)oxy)methyl)benzonitrile] |
| ≤ 10 | ≤ 1000 | CN1CCn2c1cc(OCc1ccc(Oc3cnc(F)c(F)c3)c(C#N)c1)nc2=O [Example E73, 2-((5,6-difluoropyridin-3-yl)oxy)-5-(((1-methyl-5-oxo-1,2,3,5-tetrahydroimidazo[1,2-c]pyrimidin-7-yl)oxy)methyl)benzonitrile] |
| ≤ 10 | ≤ 1000 | CN1CCn2c1cc(OCc1ccc(Oc3cccc(F)c3)c(C#N)c1)nc2=O [Example E18, 2-(3-fluorophenoxy)-5-(((1-methyl-5-oxo-1,2,3,5-tetrahydroimidazo[1,2-c]pyrimidin-7-yl)oxy)methyl)benzonitrile] |
| ≤ 1 | ≤ 100 | CN1CCn2c1cc(OCc1ccc(Oc3ccc(F)c(C(F)(F)F)c3)c(F)c1)nc2=O [Example E45, 7-((3-fluoro-4-(4-fluoro-3-(trifluoromethyl)phenoxy)benzyl)oxy)-1-methyl-2,3-dihydroimidazo[1,2-c]pyrimidin-5(1H)-one, trifluoroacetic acid salt] |
| ≤ 10 | ≤ 1000 | CN1CCn2c1cc(OCc1ccc(Oc3cc(F)cc(F)c3)c(C#N)c1)nc2=O [Example 111, 2-(3,5-difluorophenoxy)-5-(((1-methyl-5-oxo-1,2,3,5-tetrahydroimidazo[1,2-c]pyri-midin-7-yl)oxy)methyl)benzonitrile] |
| 0.631 | ≤ 100 | CN1CCn2c1cc(OCc1ccc(Oc3ccc(C#N)c(C(F)(F)F)c3)c(F)c1)nc2=O [Example E83, 4-(2-fluoro-4-(((1-methyl-5-oxo-1,2,3,5-tetrahydroimidazo[1,2-c]pyrimidin-7-yl)oxy)methyl)phenoxy)-2-(trifluoromethyl)benzonitrile, trifluoroacetic acid salt] |

The remaining lines, values behind:

| Compound | IC50 [1] [nM] | IC50 (Lp-PLA2 in human plasma) [nM] |
| --- | --- | --- |
| CN1CCn2c1cc(OCCc1ccc(Oc3ccc(Cl)c(C(F)(F)F)c3)cc1)nc2=O [Example E13, 7-(4-(4-chloro-3-(trifluoromethyl)phenoxy)phenethoxy)-1-methyl-2,3-dihydroimi-dazo[1,2-c]pyrimidin-5(1H)-one] | ≤ 10 | ≤ 1000 |
| CN1CCn2c1cc(OCc1ccc(Oc3cccc(C(F)(F)F)c3)c(C#N)c1)nc2=O [Example E1, 5-(((1-methyl-5-oxo-1,2,3,5-tetrahydroimidazo[1,2-c]pyrimidin-7-yl)oxy)methyl)-2-(3-(trifluoromethyl)phenoxy)benzonitrile] | ≤ 10 | ≤ 100 |
| CN1CCn2c1cc(OCc1cc(F)c(Oc3ccc(C(F)(F)F)nc3)c(F)c1)nc2=O [Example E2, 7-((3,5-difluoro-4-((6-(trifluoromethyl)pyridin-3-yl)oxy)benzyl)oxy)-1-methyl-2,3-dihydroimidazo[1,2-c]pyrimidin-5(1H)-one] | ≤ 10 | ≤ 1000 |
| CN1CCn2c1cc(OCc1ccc(Oc3cncc(C(F)(F)F)c3)c(C#N)c1)nc2=O [Example 115, 5-(((1-methyl-5-oxo-1,2,3,5-tetrahydroimidazo[1,2-c]pyrimidin-7-yl)oxy)methyl)-2-((5-(trifluoromethyl)pyridin-3-yl)oxy)benzonitrile, trifluoroacetic acid salt] | 3.98 | ≤ 100 |
| CN1CCn2c1cc(OCc1ccc(Oc3ccc(Cl)c(C#N)c3)c(C#N)c1)nc2=O [Example 114, 2-chloro-5-(2-cyano-4-(((1-methy-5-oxo-1,2,3,5-tetrahydroimidazo[1,2-c]pyrimidin-7-yl)oxy)methyl)phenoxy)benzonitrile] | ≤ 10 | ≤ 100 |
| N#Cc1cc(COc2cc3n(c(=O)n2)CCN3)ccc1Oc1cc(F)cc(C(F)(F)F)c1 [Example 120, 2-(3-fluoro-5-(trifluoromethyl)phenoxy)-5-(((5-oxo-1,2,3,5-tetrahydroimidazo[1,2-c]pyrimidin-7-yl)oxy)methyl)benzonitrile] | ≤ 10 | ≤ 100 |
| O=c1nc(OCc2ccc(Oc3ccc(F)c(C(F)(F)F)c3)c(F)c2)cc2n1CCN2 [Example E66, 7-((3-fluoro-4-(4-fluoro-3-(trifluoromethyl)phenoxy)benzyl)oxy)-2,3-dihydroimidaz-o[1,2-c]pyrimidin-5(1H)-one] | ≤ 1 | ≤ 100 |
| CN1CCn2c1cc(OCc1ccc(Oc3ccc(F)c(C(F)(F)F)c3)cc1)nc2=O [Example E29, 7-((4-(4-fluoro-3-(trifluoromethyl)phenoxy)benzyl)oxy)-1-methyl-2,3-dihydroimid-azo[1,2-c]pyrimidin-5(1H)-one] | ≤ 10 | ≤ 1000 |
| CN1CCn2c1cc(OCc1ccc(Oc3ccnc(C#N)c3)c(C#N)c1)nc2=O [Example 130, 4-(2-cyano-4-(((1-methyl-5-oxo-1,2,3,5-tetrahydroimidazo[1,2-c]pyrimidin-7-yl)oxy)methyl)phenoxy)picolinonitrile, trifluoroacetic acid salt] | ≤ 10 | ≤ 100 |
| O=c1nc(OCc2cc(F)c(Oc3ccc(F)cc3)c(F)c2)cc2n1CCN2 [Example E74, 7-((3,5-difluoro-4-(4-fluorophenoxy)benzyl)oxy)-2,3-dihydroimidazo[1,2-c]pyrimidin-5(1H)-one] | ≤ 10 | – |
